We go through 6 compounds from patent US12528814B2, “Bifunctional degraders of interleukin-1 receptor-associated kinases and therapeutic use thereof” (NURIX THERAPEUTICS, INC., priority 2020, dated 2026).

Assay [1] concerns the target T1, IRAK4 (Homo sapiens (Human), UniProt Q9NWZ3). Briefly: IRAK4 Degradation HTRF Assay. In kind it is cell-based. Particulars: wild-type Jurkat cells, 4 hrs. As to the method:
DMSO was stamped into wells A12-H12 at 400 nL/well (NC, Negative Control, maximum signal). […] Following incubation, plates were centrifuged for 5 min at 1600 rpm. […] Cells were incubated 30 min at room temperature with gentle shaking. 16 μL each lysate was transferred to 96-well detection plate included in Cisbio Total IRAK4 HTRF Assay Kit (cat. no. 63ADK108PEG). To the lysates was added 2 μL each of Total-IRAK4 d2 antibody and Total-IRAK4 Cryptate antibody (Cisbio Total IRAK4 HTRF Assay Kit). Plates were incubated overnight at RT. Fluorescence emission at 665 nm and 620 nm was read using an EnVision plate reader. The HTRF Ratio was calculated per sample using the following equation: HTRF Ratio=(665 nm signal/620 nm signal)×10,000
Target sequence in this assay (Q9NWZ3 whole entry): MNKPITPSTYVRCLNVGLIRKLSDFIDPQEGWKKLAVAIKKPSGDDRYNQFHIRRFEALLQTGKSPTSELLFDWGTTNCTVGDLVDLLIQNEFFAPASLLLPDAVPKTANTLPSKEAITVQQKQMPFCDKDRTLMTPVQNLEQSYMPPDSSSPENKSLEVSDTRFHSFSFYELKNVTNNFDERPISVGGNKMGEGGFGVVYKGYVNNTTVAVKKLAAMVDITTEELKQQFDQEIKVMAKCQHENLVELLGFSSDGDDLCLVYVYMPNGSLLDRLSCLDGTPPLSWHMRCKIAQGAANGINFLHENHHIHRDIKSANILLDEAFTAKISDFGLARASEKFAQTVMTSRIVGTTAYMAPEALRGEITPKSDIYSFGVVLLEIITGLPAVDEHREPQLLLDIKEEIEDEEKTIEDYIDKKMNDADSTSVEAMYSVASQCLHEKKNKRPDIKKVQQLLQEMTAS

In assay [2] the target is T1, IRAK4. Briefly: IRAK4 Degradation Competition/Rescue Assay. In kind it is cell-based. The following applies: degrader 1 μM; 1 hr pre-treatment with Nedd8i (5 μM) or MG-132 (20 or 50 μM); HiBiT Jurkat clone 8D5. An excerpt: IRAK4 Degradation Competition/Rescue Assay
Target sequence in this assay (Q9NWZ3 whole entry): as above
The next assay concerns the target IRAK1 (Homo sapiens (Human), UniProt P51617). Briefly: Western Assay for IRAK1 Degradation. The class given is cell-based. Particulars: wild-type Jurkat cells, 4 hrs. As to the method:
Biological Example 4 Western Assay for IRAK4, IRAK1 and GSPT1 Degradation
DMSO was stamped into wells A12-H12 at 500 nL/well (NC, Negative Control, maximum signal). […] Following incubation, plates were centrifuged for 5 min at 1600 rpm. Media was removed and cell pellets were lysed in 50 μL lysis buffer (RIPA buffer (Fisher, PI89901), cOmplete Mini EDTA-free protease inhibitor (Sigma 11836170001), Protease Inhibitor Cocktail (Sigma, P2714), Phosphatase Inhibitor Cocktail 2 and 3 (Sigma, P5726 and P0044), Benzonase (Sigma, E1014)). Cells were lysed overnight at −20° C. Plates were centrifuged for 5 min at 1600 rpm and lysate supernatants were transferred to storage plates. Protein levels were determined by BCA Assay performed according to manufacturer's protocol (EMD Millipore, cat. no. 71285-3). Samples were combined with (4×) LDS Sample Buffer and (10×) Reducing Agent and H2O to equally load 10 ug protein per lane of a 26-well NuPAGE 4-12% Bis-Tris protein gel (1.0 mm, Thermo cat. no. NP0326). Samples were separated by running gels at constant 200 V in NuPAGE MES SDS Running Buffer. Following electrophoresis, proteins were transferred to nitrocellulose membranes using an iBlot Gel Transfer Device and iBlot Gel Transfer Stacks (Thermo cat. no. IB21001 and IB301001) and transfer method PO (20V 1 min, 23V 4 min, 25V 2 min). Membranes were blocked for 1 hr in 5% milk solution (TBS (0.2% Tween-20)).
Following blocking, membranes were incubated with primary antibody overnight at 4° C. with gentle shaking. The primary antibodies and dilutions used were as follows: IRAK4—abcam ab3200612, 1:500; IRAK1—Cell Signaling Technologies D51G7 #4504, 1:500; GSPT1—Cell Signaling Technologies #14980, 1:500). Blots were washed 3× in TBS (0.2% Tween-20), 5-10 min per wash. Following washes, blots were incubated in secondary HRP-conjugated antibody (Promega anti-Rabbit IgG (H+L) HRP, cat. no. W4011), 1:5000 in 5% milk solution (TBS (0.2% Tween-20)), for 1 hr at room temperature with gentle shaking. Blots were washed 3× in TBS (0.2% Tween-20), 5-10 min per wash. Blots were incubated with 1:1 mix of ECL reagents 1 & 2 (Amersham ECL Western Blotting Detection Reagent, cat. no. RPN2106) for 2-3 min at room temperature. Bands were visualized using a Protein Simple imager. Blots were then re-probed with a combination of anti-actin antibody (Sigma Monoclonal Mouse Anti-3-Actin (clone AC-15), cat. no. A5441) and secondary HRP-conjugated antibody (Promega anti-Mouse IgG (H+L) HRP, cat. no. W4021) and similar steps were taken for incubation, wash, detection and visualization steps as above. The data was analyzed using Alpha View software. The densitometric reading for each sample band was normalized to that of the corresponding actin band per lane.

The target of assay [3] is T1, IRAK4. Description: IRAK4 Degradation HiBiT Assay. The following applies: for Dmax: Jurkat.
Target sequence in this assay (Q9NWZ3 whole entry): as above
Assay [4] deals with T1, IRAK4. Description: IRAK4 Biochemical HTRF Kinase Assay. A digest of the protocol:
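HTRF KinEASE STK S1 format measuring IRAK4 phosphorylation of biotinylated peptide; reaction solution of 5 μM STK-S1, 10 mM ATP, 10 mM MgCl2 added (stock, to 10 μl final), 90 min at ambient temperature, detection 60 min. IC50 from sixteen-point duplicate curves by non-linear regression.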
Target sequence in this assay (Q9NWZ3 whole entry, species assumed): as the sequence (Q9NWZ3 whole entry) above

The mark [5] stands for this setting: read-out: Cellular IRAK4 HiBiT: Dmax, Table 4, HiBiT-tagged Jurkat cells, 4 hrs.
Setting [6] is: read-out: Cellular IRAK4 HiBiT: Dmax, Table 5, multiple runs, HiBiT-tagged Jurkat cells, 4 hrs.
Setting [7] is: read-out: IRAK4 HiBit Dmax, C-terminal HiBiT-tagged Jurkat cells, 4 hrs, Tables 2-3.
The mark [8] stands for this setting: read-out: Cellular IRAK4 HiBiT: DC50, Table 4, HiBiT-tagged Jurkat cells, 4 hrs.
[9] abbreviates: read-out: Cellular IRAK4 HiBiT: DC50, Table 5, multiple runs, HiBiT-tagged Jurkat cells, 4 hrs.
Setting [10] is: read-out: IRAK4 HiBit DC50, C-terminal HiBiT-tagged Jurkat cells, 4 hrs, Tables 2-3.
[11] abbreviates: Table 2, CRBN-targeting compounds, read-out: IRAK4 biochemical IC50.
Where [12] appears, read: Table 4, read-out: IRAK4 HTRF biochemical: IC50.
[13] abbreviates: Table 5, multiple runs, read-out: IRAK4 HTRF biochemical: IC50.
Where [14] appears, read: Table 3, VHL-targeting compounds, read-out: IRAK4 biochemical IC50.

pIC50: −log10 of the molar value. Like-named read-outs stand apart in the source and are kept apart here.

IRAK1, sequence (P51617 whole entry): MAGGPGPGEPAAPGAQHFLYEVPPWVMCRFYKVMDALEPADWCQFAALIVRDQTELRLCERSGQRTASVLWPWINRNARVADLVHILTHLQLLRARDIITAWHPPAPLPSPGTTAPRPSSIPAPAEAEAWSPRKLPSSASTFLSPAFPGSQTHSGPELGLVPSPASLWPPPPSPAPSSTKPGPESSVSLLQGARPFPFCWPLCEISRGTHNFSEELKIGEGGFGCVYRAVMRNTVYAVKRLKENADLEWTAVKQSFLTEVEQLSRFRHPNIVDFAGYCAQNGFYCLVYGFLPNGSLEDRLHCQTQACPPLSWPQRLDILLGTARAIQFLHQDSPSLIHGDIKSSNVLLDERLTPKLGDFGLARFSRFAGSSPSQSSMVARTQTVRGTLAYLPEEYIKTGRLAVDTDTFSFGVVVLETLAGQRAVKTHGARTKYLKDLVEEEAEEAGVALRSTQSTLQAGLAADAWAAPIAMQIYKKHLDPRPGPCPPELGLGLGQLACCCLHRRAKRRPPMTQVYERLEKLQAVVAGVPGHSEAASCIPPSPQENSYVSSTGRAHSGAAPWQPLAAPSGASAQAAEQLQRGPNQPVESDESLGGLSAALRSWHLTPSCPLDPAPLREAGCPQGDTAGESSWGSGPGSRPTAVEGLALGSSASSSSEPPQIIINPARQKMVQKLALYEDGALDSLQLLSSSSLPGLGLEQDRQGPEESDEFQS

In the case of `CC(C)Nc1cc(-c2ccc3cc(C#N)cnn23)ncc1-c1nnc(N2CCN(C(=O)C3CCN(Cc4ccc5c(c4)C(=O)N(C4CCC(=O)NC4=O)C5=O)CC3)CC2)s1` (stereo not shown) [Example 13, 7-(5-(5-(4-(1-((2-(2,6-dioxopiperidin-3-yl)-1,3-dioxoisoindolin-5-yl)methyl)piperidine-4-carbonyl)piperazin-1-yl)-1,3,4-thiadiazol-2-yl)-4-(isopropylamino)pyridin-2-yl)pyrrolo[1,2-b]pyridazine-3-carbonitrile], the DC50 at IRAK4 [1] is 50 nM; at IRAK1, more than 10000 nM; at IRAK4 [3] (setting [8]) it was 25.6 nM; at IRAK4 [3] (setting [9]), 27 nM; at IRAK4 [3] (setting [10]), 26 nM. The Dmax is more than 100% at IRAK4 [1], 101% at IRAK4 [3] (setting [5]), 100% on IRAK4 [3] (setting [6]) and 101% at IRAK4 [3] (setting [7]). Besides, the “Rescue by proteasome or Nedd8 inhibition” value at IRAK4 [2] was “YES”. The negative-log IC50 (pIC50) was 9.30 at IRAK4 [4] (setting [11]), 9.30 at IRAK4 [4] (setting [12]) and 9.10 on IRAK4 [4] (setting [13]).
Turning to `Cc1ncsc1-c1ccc(CNC(=O)[C@@H]2C[C@@H](O)CN2C(=O)[C@@H](NC(=O)C2(F)CC2)C(C)(C)C)c(OCCOCCC(=O)N2CCN(c3nnc(-c4cnc(-c5ccc6cc(C#N)cnn56)cc4NC(C)C)s3)CC2)c1` [Example 47, (2S,4R)—N-(2-(2-(3-(4-(5-(6-(3-cyanopyrrolo[1,2-b]pyridazin-7-yl)-4-(isopropylamino)pyridin-3-yl)-1,3,4-thiadiazol-2-yl)piperazin-1-yl)-3-oxopropoxy)ethoxy)-4-(4-methylthiazol-5-yl)benzyl)-1-((S)-2-(1-fluorocyclopropane-1-carboxamido)-3,3-dimethylbutanoyl)-4-hydroxypyrrolidine-2-carboxamide], the 50% degradation concentration (DC50) is 140 nM at IRAK4 [1]; more than 10000 nM on IRAK1; 144 nM at IRAK4 [3] (setting [8]); 144 nM on IRAK4 [3] (setting [9]); 144 nM on IRAK4 [3] (setting [10]). For the same compound, the Dmax was more than 100% at IRAK4 [1], 118% on IRAK4 [3] (setting [5]), 118% on IRAK4 [3] (setting [6]) and 118% at IRAK4 [3] (setting [7]). Further, on IRAK4 [1], the “IRAK4 degradation by HTRF, in words” value is reported as “maximum IRAK4 degradation among the tested compounds”. For the same compound, the “Rescue by proteasome or Nedd8 inhibition” value at IRAK4 [2] is given as “YES”. The figures for the negative logarithm of the IC50 (pIC50) at IRAK4 [4] (setting [14]), on IRAK4 [4] (setting [12]) and on IRAK4 [4] (setting [13]) were 8.14, 8.14 and 8.24, respectively.
For `NC(=O)c1nn(-c2ccc(C(=O)NCCOCCOCCNc3cccc4c3C(=O)N(C3CCC(=O)NC3=O)C4=O)cc2)cc1NC(=O)c1coc(-c2ccnc(NCC(F)(F)F)c2)n1` (stereo not shown) [Comparative Compound a2, reference compound], the 50% degradation concentration (DC50) on IRAK4 [1] is 60 nM; on IRAK1, more than 10000 nM; on IRAK4 [3] (setting [10]) it was 26 nM. Besides, the Dmax at IRAK4 [1] worked out at 100%; on IRAK4 [3] (setting [7]), 88%. Moreover, the “Rescue by proteasome or Nedd8 inhibition” value at IRAK4 [2] is recorded as “YES”. Besides, the negative-log IC50 (pIC50) at IRAK4 [4] (setting [11]) was 8.92.
With `CC[C@@H]1[C@H](F)C(=O)N[C@@H]1COc1ncc(C#CCN2CCC3(CC2)CCN(c2ncc(C(=O)N[C@H](C(=O)N4C[C@H](O)C[C@H]4C(=O)NCc4ccc(-c5scnc5C)cc4)C(C)(C)C)cn2)CC3)c2cc(C(N)=O)c(OC)cc12` [Comparative b1, reference compound], the DC50 on IRAK4 [1] is 80 nM; at IRAK1, more than 10000 nM; at IRAK4 [3] (setting [10]), 204 nM. In addition, the values for the Dmax at IRAK4 [1] and on IRAK4 [3] (setting [7]) were 100% and 95%, respectively. In addition, at IRAK4 [2], the “Rescue by proteasome or Nedd8 inhibition” value was “YES”. Further, at IRAK4 [4] (setting [14]), the pIC50 is 8.64.
`CC(C)Nc1cc(-c2ccc3cc(C#N)cnn23)ncc1-c1nnc(N2CCN(C(=O)C3CCN(CC4CCN(c5ccc(-c6nn(C7CCC(=O)NC7=O)c(=O)n6C)cc5)CC4)CC3)CC2)s1` (stereo not shown) [Example 24, 7-(5-(5-(4-(1-((1-(4-(1-(2,6-dioxopiperidin-3-yl)-4-methyl-5-oxo-4,5-dihydro-1H-1,2,4-triazol-3-yl)phenyl)piperidin-4-yl)methyl)piperidine-4-carbonyl)piperazin-1-yl)-1,3,4-thiadiazol-2-yl)-4-(isopropylamino)pyridin-2-yl)pyrrolo[1,2-b]pyridazine-3-carbonitrile]: the half-maximal degradation concentration (DC50) at IRAK4 [1] was 420 nM; at IRAK1 it was more than 10000 nM; on IRAK4 [3] (setting [8]), 327 nM; at IRAK4 [3] (setting [9]), 310 nM; at IRAK4 [3] (setting [10]), 327 nM. Moreover, the Dmax at IRAK4 [1] was more than 100%; on IRAK4 [3] (setting [5]), 102%; on IRAK4 [3] (setting [6]), 112%; at IRAK4 [3] (setting [7]), 102%. Also, on IRAK4 [2], the “Rescue by proteasome or Nedd8 inhibition” value is “YES”. The negative-log IC50 (pIC50) at IRAK4 [4] (setting [11]), on IRAK4 [4] (setting [12]) and at IRAK4 [4] (setting [13]) was 9.22 in each case.
With `Cc1ncsc1-c1ccc(CNC(=O)[C@@H]2C[C@@H](O)CN2C(=O)[C@@H](NC(=O)CCCC(=O)N2CCN(c3nnc(-c4cnc(-c5ccc6cc(C#N)cnn56)cc4NC(C)C)s3)CC2)C(C)(C)C)cc1` [Example 35, (2S,4R)-1-((S)-2-(5-(4-(5-(6-(3-cyanopyrrolo[1,2-b]pyridazin-7-yl)-4-(isopropylamino)pyridin-3-yl)-1,3,4-thiadiazol-2-yl)piperazin-1-yl)-5-oxopentanamido)-3,3-dimethylbutanoyl)-4-hydroxy-N-(4-(4-methylthiazol-5-yl)benzyl)pyrrolidine-2-carboxamide], the half-maximal degradation concentration (DC50) on IRAK4 [1] was 400 nM; at IRAK1, more than 10000 nM; on IRAK4 [3] (setting [8]), 590 nM; at IRAK4 [3] (setting [9]) it was 235 nM; on IRAK4 [3] (setting [10]), 590 nM. The Dmax at IRAK4 [1], on IRAK4 [3] (setting [5]), at IRAK4 [3] (setting [6]) and on IRAK4 [3] (setting [7]) was 100% in each case. Further, the “Rescue by proteasome or Nedd8 inhibition” value on IRAK4 [2] is given as “YES”. For the same compound, the pIC50 at IRAK4 [4] (setting [14]), on IRAK4 [4] (setting [12]) and at IRAK4 [4] (setting [13]) was 8.28 in each case.
